According to ChEMBL document CHEMBL4130448, “Novel SERMs based on 3-aryl-4-aryloxy-2H-chromen-2-one skeleton - A possible way to dual ERα/VEGFR-2 ligands for treatment of breast cancer” (Eur J Med Chem, 2017):
Active and inactive are the calls of the source. No cut-off for these calls is given here.

Key:
[1] = tested on: MCF7; assay: cells; details: Homo sapiens, MCF7, 48 h
Description: Cytotoxicity in human MCF7 cells assessed as inhibition of cell growth incubated for 48 hrs by MTT assay

[2] = target: Vascular endothelial growth factor receptor 2 (Homo sapiens) (UniProt P35968); assay: Inhibition of His-tagged human VEGFR2 at 40 uM incubated for 1 hr by HTRF assay
Chain of Vascular endothelial growth factor receptor 2 (Homo sapiens) (P35968 whole entry): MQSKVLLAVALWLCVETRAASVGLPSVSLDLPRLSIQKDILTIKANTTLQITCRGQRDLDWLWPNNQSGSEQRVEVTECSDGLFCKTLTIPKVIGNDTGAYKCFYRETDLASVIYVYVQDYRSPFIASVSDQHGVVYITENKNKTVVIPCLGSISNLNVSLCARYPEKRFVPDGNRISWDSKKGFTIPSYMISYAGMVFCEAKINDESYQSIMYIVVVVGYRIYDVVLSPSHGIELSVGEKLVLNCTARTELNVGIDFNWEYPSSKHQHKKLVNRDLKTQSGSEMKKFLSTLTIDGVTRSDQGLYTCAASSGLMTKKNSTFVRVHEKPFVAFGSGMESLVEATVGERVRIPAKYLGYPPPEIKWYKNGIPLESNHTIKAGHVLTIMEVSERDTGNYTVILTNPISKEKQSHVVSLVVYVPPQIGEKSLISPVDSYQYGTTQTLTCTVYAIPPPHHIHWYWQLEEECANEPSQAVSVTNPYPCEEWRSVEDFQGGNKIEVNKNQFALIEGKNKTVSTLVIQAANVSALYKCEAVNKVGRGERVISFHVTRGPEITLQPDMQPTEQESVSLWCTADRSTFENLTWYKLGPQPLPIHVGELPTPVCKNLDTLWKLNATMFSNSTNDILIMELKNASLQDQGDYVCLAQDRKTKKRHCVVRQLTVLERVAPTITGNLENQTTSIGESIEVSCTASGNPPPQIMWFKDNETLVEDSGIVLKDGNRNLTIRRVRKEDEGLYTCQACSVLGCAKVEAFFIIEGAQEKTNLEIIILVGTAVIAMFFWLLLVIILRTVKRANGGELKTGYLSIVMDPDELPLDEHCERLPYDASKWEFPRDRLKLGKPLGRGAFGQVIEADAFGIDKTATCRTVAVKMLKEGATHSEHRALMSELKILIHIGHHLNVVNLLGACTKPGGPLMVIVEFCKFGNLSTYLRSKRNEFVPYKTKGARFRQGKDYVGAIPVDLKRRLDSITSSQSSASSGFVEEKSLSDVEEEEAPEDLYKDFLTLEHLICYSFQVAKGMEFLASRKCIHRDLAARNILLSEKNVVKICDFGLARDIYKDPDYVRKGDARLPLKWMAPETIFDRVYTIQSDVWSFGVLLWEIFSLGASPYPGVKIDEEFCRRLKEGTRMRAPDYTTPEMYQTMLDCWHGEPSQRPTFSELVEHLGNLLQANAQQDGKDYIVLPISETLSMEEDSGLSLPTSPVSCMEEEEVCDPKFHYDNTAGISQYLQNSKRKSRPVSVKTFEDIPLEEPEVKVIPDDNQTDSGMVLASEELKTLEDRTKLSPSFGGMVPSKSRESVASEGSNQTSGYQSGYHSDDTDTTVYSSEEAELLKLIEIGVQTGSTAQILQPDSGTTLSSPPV

[3] = tested on: HUVEC; assay: Antiangiogenic activity against HUVEC incubated for 48 hrs by MTT assay; type: functional, cell-based; details: Homo sapiens
[4] = tested on: Ishikawa; assay: cells; details: Homo sapiens, 48 h
Description: Cytotoxicity in human Ishikawa cells assessed as inhibition of cell growth incubated for 48 hrs by MTT assay

[5] = target: T1, Estrogen receptor (Homo sapiens, UniProt P03372); assay: Displacement of fluorescent estrogen ligand from recombinant human ERalpha expressed in insect cells incubated for 2 hrs by polarization
T1 sequence (P03372 whole entry): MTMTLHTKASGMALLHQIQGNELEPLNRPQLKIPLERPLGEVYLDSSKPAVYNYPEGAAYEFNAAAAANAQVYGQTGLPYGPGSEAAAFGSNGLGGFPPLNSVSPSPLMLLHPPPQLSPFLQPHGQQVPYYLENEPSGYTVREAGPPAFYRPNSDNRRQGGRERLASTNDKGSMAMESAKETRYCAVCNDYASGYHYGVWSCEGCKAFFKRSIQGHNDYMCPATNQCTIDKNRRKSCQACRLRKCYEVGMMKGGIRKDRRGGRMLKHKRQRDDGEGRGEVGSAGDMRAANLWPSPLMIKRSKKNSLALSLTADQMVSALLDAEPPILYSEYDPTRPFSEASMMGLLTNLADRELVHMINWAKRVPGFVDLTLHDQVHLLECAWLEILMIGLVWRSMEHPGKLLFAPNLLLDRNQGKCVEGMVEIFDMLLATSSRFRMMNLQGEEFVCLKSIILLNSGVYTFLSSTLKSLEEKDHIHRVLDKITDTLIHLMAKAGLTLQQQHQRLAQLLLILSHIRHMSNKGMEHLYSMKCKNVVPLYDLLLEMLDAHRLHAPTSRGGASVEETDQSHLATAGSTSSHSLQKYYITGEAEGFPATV

[6] = target: Vascular endothelial growth factor receptor 2 (Homo sapiens) (UniProt P35968); assay: Inhibition of VEGFR2 phosphorylation in human MCF7 cells at 2 uM incubated for 24 hrs by Western blot method relative to sunitinib; type: cell-based
[7] = tested on: MCF7; assay: Induction of cell cycle arrest in human MCF7 cells assessed as accumulation at G0/G1 phase incubated for 24 hrs by propidium iodide staining flow cytometry; type: functional, cell-based
[8] = target: Vascular endothelial growth factor receptor 2 (Homo sapiens) (UniProt P35968); assay: Inhibition of VEGFR2 phosphorylation in human MCF7 cells incubated for 24 hrs by Western blot method; type: cell-based
[9] = tested on: MCF7; assay: Induction of cell cycle arrest in human MCF7 cells assessed as accumulation at G2/M phase at 2 uM incubated for 24 hrs by propidium iodide staining flow cytometry (reference value: 26.84%); type: functional
[10] = tested on: MCF7; assay: Induction of cell cycle arrest in human MCF7 cells assessed as accumulation at G0/G1 phase at 6 uM incubated for 24 hrs by propidium iodide staining flow cytometry (reference value: 48.52%); type: functional
[11] = tested on: MCF7; assay: Induction of cell cycle arrest in human MCF7 cells assessed as accumulation at G2/M phase at 6 uM incubated for 24 hrs by propidium iodide staining flow cytometry (reference value: 26.84%); type: functional
[12] = tested on: MCF7; assay: Induction of cell cycle arrest in human MCF7 cells assessed as accumulation at S phase at 4 uM incubated for 24 hrs by propidium iodide staining flow cytometry (reference value: 24.64%); type: functional
[13] = tested on: MCF7; assay: Induction of cell cycle arrest in human MCF7 cells assessed as reduction in accumulation at S phase incubated for 24 hrs by propidium iodide staining flow cytometry; type: functional, cell-based
[14] = target: Vascular endothelial growth factor receptor 2 (Homo sapiens) (UniProt P35968); assay: Inhibition of VEGFR2 in human MCF7 cells assessed as reduction in p-Raf1 protein level incubated for 24 hrs by Western blot method; type: cell-based
[15] = target: Vascular endothelial growth factor receptor 2 (Homo sapiens) (UniProt P35968); assay: Inhibition of VEGFR2 in human MCF7 cells assessed as reduction in p-ERK1/2 protein level incubated for 24 hrs by Western blot method; type: cell-based
[16] = tested on: MCF7; assay: Induction of cell cycle arrest in human MCF7 cells assessed as reduction in accumulation at G2/M phase incubated for 24 hrs by propidium iodide staining flow cytometry; type: functional, cell-based
[17] = tested on: MCF7; assay: Effect on total Raf1 protein level in human MCF7 cells at 2 to 4 uM incubated for 24 hrs by Western blot method; type: ADME, cell-based; details: mcf7, 24 h
[18] = tested on: MCF7; assay: Induction of cell cycle arrest in human MCF7 cells assessed as accumulation at G0/G1 phase at 2 uM incubated for 24 hrs by propidium iodide staining flow cytometry (reference value: 48.52%); type: functional
[19] = tested on: MCF7; assay: Induction of cell cycle arrest in human MCF7 cells assessed as accumulation at G2/M phase at 4 uM incubated for 24 hrs by propidium iodide staining flow cytometry (reference value: 26.84%); type: functional
[20] = tested on: MCF7; assay: Effect on total ERK1/2 protein level in human MCF7 cells at 2 to 4 uM incubated for 24 hrs by Western blot method; type: ADME, cell-based; details: mcf7, 24 h
[21] = tested on: MCF7; assay: Induction of cell cycle arrest in human MCF7 cells assessed as accumulation at S phase at 2 uM incubated for 24 hrs by propidium iodide staining flow cytometry (reference value: 24.64%); type: functional
[22] = tested on: MCF7; assay: Induction of cell cycle arrest in human MCF7 cells assessed as accumulation at G0/G1 phase at 4 uM incubated for 24 hrs by propidium iodide staining flow cytometry (reference value: 48.52%); type: functional
[23] = tested on: MCF7; assay: Induction of cell cycle arrest in human MCF7 cells assessed as accumulation at S phase at 6 uM incubated for 24 hrs by propidium iodide staining flow cytometry (reference value: 24.64%); type: functional

Row | SMILES | IC50 [1] | IC50 [4] | IC50 [5] | further results
1 | COc1cc2/c(=N/c3ccc(Br)cc3F)nc[nH]c2cc1OCC1CCN(C)CC1 [VANDETANIB] | 16.5 µM |  |  | inhibition [2]: 95.7%; IC50 [3]: 6.76 µM
2 | COc1ccc2c(Oc3ccc(OCCN4CCCCC4)cc3)c(-c3ccc(F)cc3)c(=O)oc2c1 | 9.32 µM | 8.41 µM | 6.87 µM | inhibition [2]: 55.1%; IC50 [3]: 13.6 µM
3 | CN(C)CCOc1ccc(Nc2c(-c3ccc(O)cc3)c(=O)oc3cc(O)ccc23)cc1 | 28.4 µM | 30.2 µM | 8.21 µM | 
4 | CCN(CC)CCOc1ccc(Oc2c(-c3ccc(F)cc3)c(=O)oc3cc(O)ccc23)cc1 | 21.3 µM | 17.4 µM | 3.55 µM | 
5 | COc1ccc2c(Nc3ccc(OCCN4CCCC4)cc3)c(-c3ccc(F)cc3)c(=O)oc2c1 | 21.5 µM | 12.5 µM | > 10 µM | 
6 | O=c1oc2cc(O)ccc2c(Nc2ccc(OCCN3CCCCC3)cc2)c1-c1ccc(O)cc1 | 18.7 µM | 24.6 µM | 3.82 µM | inhibition [2]: 83.2%; IC50 [3]: 30.8 µM
7 | O=c1oc2cc(O)ccc2c(Oc2ccc(OCCN3CCCCC3)cc2)c1-c1ccc(F)cc1 | 9.54 µM | 11.1 µM | 2.19 µM | inhibition [6]: Active; Activity [7]: Dose-dependent effect; inhibition [8]: Dose-dependent effect; Activity [9]: 20.81%; Activity [10]: 75.46%; Activity [11]: 9.85%; Activity [12]: 18.41%; Activity [13]: Dose-dependent effect; inhibition [14]: Dose-dependent effect; inhibition [15]: Dose-dependent effect; Activity [16]: Dose-dependent effect; inhibition [2]: 82.9%; Activity [17]: Non-Toxic; Activity [18]: 60.67%; Activity [19]: 16.22%; Activity [20]: Non-Toxic; Activity [21]: 18.52%; Activity [22]: 65.37%; Activity [23]: 14.69%; IC50 [3]: 15.7 µM
8 | O=c1oc2cc(O)ccc2c(Oc2ccc(OCCN3CCCC3)cc2)c1-c1ccc(F)cc1 | 16.8 µM | 22.6 µM | 4.27 µM | 
9 | O=c1oc2cc(O)ccc2c(Nc2ccc(OCCN3CCCCC3)cc2)c1-c1ccc(F)cc1 | 7.06 µM | 10.4 µM | 3.86 µM | inhibition [2]: 88.4%; IC50 [3]: 9.92 µM
10 | COc1ccc2c(Nc3ccc(OCCN4CCCCC4)cc3)c(-c3ccc(F)cc3)c(=O)oc2c1 | 12.6 µM | 8.71 µM | 7.96 µM | inhibition [2]: 66%; IC50 [3]: 9.05 µM
11 | COc1ccc(-c2c(Oc3ccc(OCCN4CCCC4)cc3)c3ccc(OC)cc3oc2=O)cc1 | 14.4 µM | 8.53 µM | > 10 µM | 
12 | COc1ccc2c(Nc3ccc(OCCN(C)C)cc3)c(-c3ccc(F)cc3)c(=O)oc2c1 | 31.6 µM | 13.5 µM | > 10 µM | 
13 | CN(C)CCOc1ccc(Nc2c(-c3ccc(F)cc3)c(=O)oc3cc(O)ccc23)cc1 | 19.3 µM | 24.8 µM | 6.62 µM | 
14 | O=c1oc2cc(O)ccc2c(Oc2ccc(OCCN3CCCCC3)cc2)c1-c1ccc(O)cc1 | 19.7 µM | 28.4 µM | 2.62 µM | inhibition [2]: 66.1%; IC50 [3]: 23.9 µM
15 | CCN(CC)CCOc1ccc(Oc2c(-c3ccc(OC)cc3)c(=O)oc3cc(OC)ccc23)cc1 | 15.3 µM | 9.32 µM | > 10 µM | 
16 | COc1ccc(-c2c(Oc3ccc(OCCN4CCCCC4)cc3)c3ccc(OC)cc3oc2=O)cc1 | 9.62 µM | 7.47 µM | 9.42 µM | inhibition [2]: 67.6%; IC50 [3]: 7.64 µM
17 | CC/C(=C(\c1ccccc1)c1ccc(OCCN(C)C)cc1)c1ccccc1 [TAMOXIFEN] | 14.3 µM | 20.7 µM |  | 
18 | CCN(CC)CCOc1ccc(Nc2c(-c3ccc(F)cc3)c(=O)oc3cc(OC)ccc23)cc1 | 26.3 µM | 17.9 µM | > 10 µM | 

Row | SMILES | IC50 [1] | IC50 [4] | IC50 [5] | further results
19 | CCN(CC)CCOc1ccc(Oc2c(-c3ccc(O)cc3)c(=O)oc3cc(O)ccc23)cc1 | > 50 µM | > 50 µM | > 10 µM | 
20 | COc1ccc2c(Oc3ccc(OCCN4CCCC4)cc3)c(-c3ccc(F)cc3)c(=O)oc2c1 | 14.6 µM | 15.1 µM | > 10 µM | 
21 | O=c1oc2ccccc2c(Nc2ccc(OCCN3CCCCC3)cc2)c1-c1ccc(F)cc1 | 11.3 µM | 10.3 µM | 7.79 µM | inhibition [2]: 41.8%; IC50 [3]: 17.2 µM
22 | CCN(CC)CCOc1ccc(Nc2c(-c3ccc(F)cc3)c(=O)oc3ccccc23)cc1 | 26.4 µM | 24.7 µM | > 10 µM | 
23 | CCN(CC)CCOc1ccc(Nc2c(-c3ccc(F)cc3)c(=O)oc3cc(O)ccc23)cc1 | 17.5 µM | 17.2 µM | 4.37 µM | 
24 | O=c1oc2cc(O)ccc2c(Nc2ccc(OCCN3CCCC3)cc2)c1-c1ccc(F)cc1 | 13.9 µM | 21.5 µM | 4.53 µM | 
25 | CN(C)CCOc1ccc(Oc2c(-c3ccc(O)cc3)c(=O)oc3cc(O)ccc23)cc1 | 41.4 µM | 37 µM | 8.43 µM | 
26 | CCN(CC)CCOc1ccc(Nc2c(-c3ccc(O)cc3)c(=O)oc3cc(O)ccc23)cc1 | 27.5 µM | 29.1 µM | 5.97 µM | 
27 | COc1ccc(-c2c(Oc3ccc(OCCN(C)C)cc3)c3ccc(OC)cc3oc2=O)cc1 | 17.8 µM | 11.4 µM | > 10 µM | 
28 | CN(C)CCOc1ccc(Oc2c(-c3ccc(F)cc3)c(=O)oc3cc(O)ccc23)cc1 | 16.6 µM | 18.7 µM | 6.43 µM | 
29 | O=c1oc2ccccc2c(Nc2ccc(OCCN3CCCC3)cc2)c1-c1ccc(F)cc1 | 26.1 µM | 25.7 µM | > 10 µM | 
30 | CCN(CC)CCOc1ccc(Oc2c(-c3ccc(F)cc3)c(=O)oc3cc(OC)ccc23)cc1 | 16.6 µM | 15.7 µM | > 10 µM | 
31 | COc1ccc2c(Oc3ccc(OCCN(C)C)cc3)c(-c3ccc(F)cc3)c(=O)oc2c1 | 15.3 µM | 17.3 µM | 8.96 µM | 
32 | CN(C)CCOc1ccc(Nc2c(-c3ccc(F)cc3)c(=O)oc3ccccc23)cc1 | 32.5 µM | 28.5 µM | > 10 µM | 
33 | O=c1oc2cc(O)ccc2c(Nc2ccc(OCCN3CCCC3)cc2)c1-c1ccc(O)cc1 | 20.7 µM | 26.7 µM | 6.43 µM | 
34 | O=c1oc2cc(O)ccc2c(Oc2ccc(OCCN3CCCC3)cc2)c1-c1ccc(O)cc1 | 23.9 µM | 24.5 µM | 6.84 µM | 
35 | COc1ccc(-c2c(Nc3ccc(OCCN4CCCCC4)cc3)c3ccc(O)cc3oc2=O)cc1 | 11.4 µM | 14.4 µM | 6.64 µM | inhibition [2]: 59.3%; IC50 [3]: 16.2 µM
